From PubChem BioAssay AID1845205 (Molecular Pharmacology Branch, DTP, NCI, 2023)

Test system: MPNST multicellular tumor spheroids, viability % test/control
Experiment: Anticancer human tumor MPNST cell line growth inhibition;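 note: spheroids exposed to agents for seven days after three days of growth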;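 for viability, T/C: luminescence signal used as surrogate for viable cell amount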
Conditions: for IC50: curve of first compound; for viability, T/C: stronger effect = lower value
Outline: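 Complex spheroids of malignant cells with endothelial cells and mesenchymal stem cells; agents alone or combined, from near clinical Cmax (or 10 microM if unknown) down in half-log steps, 0.25% DMSO final.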

[1] = second compound 30 pM, first compound 0.00949 µM
[2] = second compound 30 pM, first compound 0.03 µM
[3] = second compound 30 pM, first compound 0.0949 µM
[4] = second compound 30 pM, first compound 0.3 µM
[5] = second compound 30 pM, first compound 0.949 µM
[6] = second compound 30 pM, first compound 3 µM
[7] = second compound 94.9 pM, first compound 0.00949 µM
[8] = second compound 94.9 pM, first compound 0.03 µM
[9] = second compound 94.9 pM, first compound 0.0949 µM
[10] = second compound 94.9 pM, first compound 0.3 µM
[11] = second compound 94.9 pM, first compound 0.949 µM
[12] = second compound 94.9 pM, first compound 3 µM
[13] = second compound 0.0003 µM, first compound 0.00949 µM
[14] = second compound 0.0003 µM, first compound 0.03 µM
[15] = second compound 0.0003 µM, first compound 0.0949 µM
[16] = second compound 0.0003 µM, first compound 0.3 µM
[17] = second compound 0.0003 µM, first compound 0.949 µM
[18] = second compound 0.0003 µM, first compound 3 µM
[19] = second compound 0.000949 µM, first compound 0.00949 µM
[20] = second compound 0.000949 µM, first compound 0.03 µM
[21] = second compound 0.000949 µM, first compound 0.0949 µM
[22] = second compound 0.000949 µM, first compound 0.3 µM
[23] = second compound 0.000949 µM, first compound 0.949 µM
[24] = second compound 0.000949 µM, first compound 3 µM
[25] = second compound 0.003 µM, first compound 0.00949 µM
[26] = second compound 0.003 µM, first compound 0.03 µM
[27] = second compound 0.003 µM, first compound 0.0949 µM
[28] = second compound 0.003 µM, first compound 0.3 µM
[29] = second compound 0.003 µM, first compound 0.949 µM
[30] = second compound 0.003 µM, first compound 3 µM

Compound `CNCc1ccc(-c2cc(-c3nc(-c4ccc(S(=O)(=O)C(C)C)cc4)cnc3N)on2)cc1` + COc1cc2c(cc1O)CCNC21CSC2c3c(OC(C)=O)c(C)c4c(c3C(COC1=O)N1C(O)C3Cc5cc(C)c(OC)c(O)c5C(C21)N3C)OCO4 has an IC50 (second compound 30 pM) of 283 nM, an IC50 (second compound 94.9 pM) greater than 3000 nM and an IC50 (second compound 0.0003 µM) of 96.6 nM. It also gave an IC50 (second compound 0.000949 µM) of less than 9.49 nM, an IC50 (second compound 0.003 µM) of less than 9.49 nM and a viability, T/C [1] of 83.5%. The viability, T/C [2] was 105%, the viability, T/C [3] was 63.5% and the viability, T/C [4] was 54.8%. It also gave a viability, T/C [5] of 47.2%, a viability, T/C [6] of 45.9% and a viability, T/C [7] of 79%. It also gave a viability, T/C [8] of 74%, a viability, T/C [9] of 70.4% and a viability, T/C [10] of 55.6%. The viability, T/C [11] was 49.7%, the viability, T/C [12] was 53.6% and the viability, T/C [13] was 68.1%. For the same compound, the viability, T/C [14] was 70.8%, the viability, T/C [15] was 50.1% and the viability, T/C [16] was 42.4%. The viability, T/C [17] was 46.3%, the viability, T/C [18] was 46.8% and the viability, T/C [19] was 39%. It also gave a viability, T/C [20] of 39.5%, a viability, T/C [21] of 38.5% and a viability, T/C [22] of 36.2%. For the same compound, the viability, T/C [23] was 46%, the viability, T/C [24] was 48.6% and the viability, T/C [25] was 6.71%. For the same compound, the viability, T/C [26] was 17.8%, the viability, T/C [27] was 18.7% and the viability, T/C [28] was 8.25%. It also gave a viability, T/C [29] of 12.3% and a viability, T/C [30] of 8.15%.
`Cc1sc2c(c1C)C(c1ccc(Cl)cc1)=NC(CC(=O)Nc1ccc(O)cc1)c1nnc(C)n1-2` (stereo not given) + COc1cc2c(cc1O)CCNC21CSC2c3c(OC(C)=O)c(C)c4c(c3C(COC1=O)N1C(O)C3Cc5cc(C)c(OC)c(O)c5C(C21)N3C)OCO4 gave an IC50 (second compound 30 pM) of 219 nM, an IC50 (second compound 94.9 pM) of 155 nM and an IC50 (second compound 0.0003 µM) of 58.4 nM. For the same compound, the IC50 (second compound 0.000949 µM) was less than 9.49 nM, the IC50 (second compound 0.003 µM) was less than 9.49 nM and the viability, T/C [1] was 86.9%. It also gave a viability, T/C [2] of 71%, a viability, T/C [3] of 85.7% and a viability, T/C [4] of 38.2%. The viability, T/C [5] was 26.3%, the viability, T/C [6] was 24% and the viability, T/C [7] was 62.5%. For the same compound, the viability, T/C [8] was 70.3%, the viability, T/C [9] was 56.6% and the viability, T/C [10] was 39.3%. For the same compound, the viability, T/C [11] was 27.9%, the viability, T/C [12] was 23.9% and the viability, T/C [13] was 59.6%. The viability, T/C [14] was 53.3%, the viability, T/C [15] was 47.5% and the viability, T/C [16] was 36.3%. The viability, T/C [17] was 26.6%, the viability, T/C [18] was 22.4% and the viability, T/C [19] was 31%. It also gave a viability, T/C [20] of 29.7%, a viability, T/C [21] of 27.4% and a viability, T/C [22] of 21.6%. The viability, T/C [23] was 12.7%, the viability, T/C [24] was 14.8% and the viability, T/C [25] was 6.19%. It also gave a viability, T/C [26] of 4.21%, a viability, T/C [27] of 4.96% and a viability, T/C [28] of 1.41%. The viability, T/C [29] was 2.26% and the viability, T/C [30] was 1.94%.
`Cn1ncnc1[C@H]1c2n[nH]c(=O)c3cc(F)cc(c23)N[C@@H]1c1ccc(F)cc1` + COc1cc2c(cc1O)CCNC21CSC2c3c(OC(C)=O)c(C)c4c(c3C(COC1=O)N1C(O)C3Cc5cc(C)c(OC)c(O)c5C(C21)N3C)OCO4 gave an IC50 (second compound 30 pM) of 1520 nM, an IC50 (second compound 94.9 pM) of 259 nM and an IC50 (second compound 0.0003 µM) of 68.9 nM. It also gave an IC50 (second compound 0.000949 µM) of less than 9.49 nM, an IC50 (second compound 0.003 µM) of less than 9.49 nM and a viability, T/C [1] of 64.4%. For the same compound, the viability, T/C [2] was 75.2%, the viability, T/C [3] was 58.3% and the viability, T/C [4] was 59.1%. It also gave a viability, T/C [5] of 52.7%, a viability, T/C [6] of 46% and a viability, T/C [7] of 68.9%. It also gave a viability, T/C [8] of 86.8%, a viability, T/C [9] of 67% and a viability, T/C [10] of 49.9%. It also gave a viability, T/C [11] of 45.3%, a viability, T/C [12] of 46% and a viability, T/C [13] of 53.1%. The viability, T/C [14] was 53.6%, the viability, T/C [15] was 47% and the viability, T/C [16] was 49%. The viability, T/C [17] was 43%, the viability, T/C [18] was 41.9% and the viability, T/C [19] was 51.6%. It also gave a viability, T/C [20] of 41.6%, a viability, T/C [21] of 40.9% and a viability, T/C [22] of 44.4%. It also gave a viability, T/C [23] of 38%, a viability, T/C [24] of 29.9% and a viability, T/C [25] of 13.7%. The viability, T/C [26] was 15.3%, the viability, T/C [27] was 9.43% and the viability, T/C [28] was 9.63%. For the same compound, the viability, T/C [29] was 6.89% and the viability, T/C [30] was 2.68%.
`O=C(c1cc(Cc2n[nH]c(=O)c3ccccc23)ccc1F)N1CCN(C(=O)C2CC2)CC1` + COc1cc2c(cc1O)CCNC21CSC2c3c(OC(C)=O)c(C)c4c(c3C(COC1=O)N1C(O)C3Cc5cc(C)c(OC)c(O)c5C(C21)N3C)OCO4 showed an IC50 (second compound 30 pM) of 5280 nM, an IC50 (second compound 94.9 pM) of 1620 nM and an IC50 (second compound 0.0003 µM) of 153 nM. It also gave an IC50 (second compound 0.000949 µM) of less than 94.9 nM, an IC50 (second compound 0.003 µM) of less than 94.9 nM and a viability, T/C [3] of 91.7%. The viability, T/C [4] was 79.2%, the viability, T/C [5] was 57.2% and the viability, T/C [6] was 72.7%. The viability, T/C (second compound 30 pM, first compound 9.49 µM) was 38.3%, the viability, T/C (second compound 30 pM, first compound 30 µM) was 25.2% and the viability, T/C [9] was 50.1%. It also gave a viability, T/C [10] of 57.1%, a viability, T/C [11] of 70% and a viability, T/C [12] of 39.7%. The viability, T/C (second compound 94.9 pM, first compound 9.49 µM) was 29.7%, the viability, T/C (second compound 94.9 pM, first compound 30 µM) was 25.1% and the viability, T/C [15] was 53.5%. For the same compound, the viability, T/C [16] was 44.5%, the viability, T/C [17] was 40.3% and the viability, T/C [18] was 34.5%. The viability, T/C (second compound 0.0003 µM, first compound 9.49 µM) was 28.6%, the viability, T/C (second compound 0.0003 µM, first compound 30 µM) was 25.3% and the viability, T/C [21] was 26.8%. The viability, T/C [22] was 29.3%, the viability, T/C [23] was 25.9% and the viability, T/C [24] was 24.8%. The viability, T/C (second compound 0.000949 µM, first compound 9.49 µM) was 21.5%, the viability, T/C (second compound 0.000949 µM, first compound 30 µM) was 14.8% and the viability, T/C [27] was 7.65%. The viability, T/C [28] was 7.5%, the viability, T/C [29] was 5.51% and the viability, T/C [30] was 6.23%. For the same compound, the viability, T/C (second compound 0.003 µM, first compound 9.49 µM) was 3.48% and the viability, T/C (second compound 0.003 µM, first compound 30 µM) was 2.13%.
